The experiment has as its system Naegleria fowleri trophozoites. The experiment is described as follows: CellTiter-Glo 2.0 trophocidal assay, N. fowleri. It counts as cell-based. To be noted: for IC50: CTG method, 72 h, duplicate twofold serial dilutions from 10 µM, mean ± SD, read-out: N. fowleri Mean IC50 (µM) ± SD; for Selectivity Index (A549 IC50/N. fowleri IC50): SI = (IC50 A549)/(IC50 Amoeba); for potency against N. fowleri, in words: dose-response, CTG. As to the method: Pathogenic Naegleria fowleri (ATCC 30215), a clinical isolate obtained from a child in Adelaide, Australia, that died of PAM in 1969 was previously purchased from the American Type Culture Collection (ATCC). Trophozoites were routinely grown axenically at 34 °C in Nelson’s complete medium (NCM) in non-vented 75 cm^2 tissue culture flasks (Olympus, El Cajon, CA, USA), until the cells were 80–90% confluent. For sub-culturing, cells were placed on ice to detach the cells from the culture flasks. The cells were collected by centrifugation at 4000 rpm at 4 °C. Complete NCM media is produced by the addition of 10% FBS and 125 μg of penicillin/streptomycin antibiotics.
The trophocidal activity of compounds was assessed using the CellTiter-Glo 2.0 luminescent viability assay (Promega, Madison, WI, USA), as previously described. Trophozoites were routinely cultured as described above and only logarithmic trophozoites were used. In brief, B. mandrillaris, N. fowleri, or A. castellanii trophozoites cultured in their corresponding media were seeded at 16,000, 3000, or 1440 cells/well into white 96-well plates (Costar 3370), respectively. Initially all compounds were assessed in a single-point drug screen at 10 and 1 μM, as previously described. […] Control wells were supplemented with 0.1% (10 μM screening plate) or 0.01% (1 μM screening plate) DMSO, as the negative controls, or 12.5 μM of chlorhexidine, as the positive control. Following the single-point assays at 10 and 1 µM, we prioritized compounds for progression to IC50 determinations. […] We used this process to reduce the number of potential false positives. Drugs were cherry-picked, dissolved in the media specific to each parasite, and assessed in twofold serial dilutions from the highest concentration of 10 μM. All assays were incubated at each of the parasites’ representative growth temperatures, described above, for 72 h. At the 72 h time point, 25 μL of CellTiter-Glo 2.0 reagent was added to all wells of the 96-well plates using the Biomek NX^P automated workstation. The plates were protected from light and contents were mixed using an orbital shaker at 300 rpm at room temperature for 2 min to induce cell lysis. After shaking, the plates were equilibrated at room temperature for 10 min to stabilize the luminescent signal. The adenosine triphosphate (ATP) luminescent signal (relative light units; RLUs) was measured at 490 nm with a SpectraMax I3X plate reader (Molecular Devices, Sunnyvale, CA, USA). Drug inhibitory concentration (IC50) curves were generated using total ATP RLUs, where controls were calculated as the average of replicates using the Levenberg–Marquardt algorithm, using DMSO as the normalization control, as defined in Collaborative Drug Discovery Inc. (CDD) Vault (Burlingame, CA, USA). Values reported are from a minimum of two biological replicates with standard deviations.
(In general: Cellular ATP, detected with luciferase, serves as a proxy for viable cell number.)

Each structure is given as a SMILES string. Read-outs that look alike come from different tables or passages of the source. Bounds are passed on as bounds.

This is an account of results in PMC7344389, “Discovery of Anti-Amoebic Inhibitors from Screening the MMV Pandemic Response Box on Balamuthia mandrillaris, Naegleria fowleri, and Acanthamoeba castellanii” (Pathogens, 2020).

Take `CN(Cc1ccc(C(C)(C)C)cc1)Cc1cccc2ccccc12` [Butenafine]: the IC50 (commonly the concentration that gives 50% inhibition) was found to be 1.05 ± 0.35 µM and the “Selectivity Index (A549 IC50/N. fowleri IC50)” value (shortened to “Selectivity Index”) is at least 9.52. The IC50 (listed as butenafine) was at most 10 µM.

For `CC(=O)Oc1ccccc1C(=O)Nc1ncc([N+](=O)[O-])s1` [Nitazoxanide], the “Selectivity Index” value is listed as at least 2.78. Moreover, the IC50 (Naegleria fowleri) stood at 3.6 µM.

With `Cc1[nH]c2ccccc2c1CCNCc1ccc(/C=C/C(=O)NO)cc1` [Panobinostat], the “Selectivity Index” value is under 1.44 and the “potency against N. fowleri, in words” value is “nanomolar potency”. Besides, for the setting “Naegleria fowleri”, the IC50 was 0.22 ± 0.06 µM.

Take `C[C@@H](c1nc(-c2ccc(C#N)cc2)cs1)[C@](O)(Cn1cncn1)c1ccc(F)cc1F` [Ravuconazole]: the “potency against N. fowleri, in words” value was “nanomolar potency”. For the same compound, the IC50 (Naegleria fowleri) worked out at 0.05 ± 0.02 µM. Besides, the “Selectivity Index” value (listed as ravuconazole) is recorded as at least 10.

On to `CN(C/C=C/C#CC(C)(C)C)Cc1cccc2ccccc12` [Terbinafine], for which the “Selectivity Index” value is given as at least 12.7 and the “potency against N. fowleri, in words” value is “nanomolar potency”. Moreover, the IC50 (Naegleria fowleri) came to 0.79 ± 0.7 µM. The “Selectivity Index” value (listed as terbinafine) is on record as at least 10.
